This passage reports IC50 results from PubChem BioAssay AID1645864 (Buhrlage Lab, Dana-Farber Cancer Institute and Novartis …, 2021).

Active and inactive are the calls of the source.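 How the source made its calls: active means maximal inhibition of USP17 at or above 30% in the confirmation dose-response, a value not among the printed readouts; inactive means the rest.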 Where only a bound is given, the exact number is not on record here.

In this experiment the target is Ubiquitin carboxyl-terminal hydrolase 17-like protein 5 (Homo sapiens) (UniProt A8MUK1). Kind of experiment: ubiquitin-specific protease 17 inhibitors, concentration series, biochemical, verification of primary actives (AID 1645864). The settings on record: purified USP17, ubiquitin-rhodamine cleavage fluorescence, 3 h.
Ubiquitin carboxyl-terminal hydrolase 17-like protein 5 (Homo sapiens), sequence (A8MUK1 whole entry, looked up): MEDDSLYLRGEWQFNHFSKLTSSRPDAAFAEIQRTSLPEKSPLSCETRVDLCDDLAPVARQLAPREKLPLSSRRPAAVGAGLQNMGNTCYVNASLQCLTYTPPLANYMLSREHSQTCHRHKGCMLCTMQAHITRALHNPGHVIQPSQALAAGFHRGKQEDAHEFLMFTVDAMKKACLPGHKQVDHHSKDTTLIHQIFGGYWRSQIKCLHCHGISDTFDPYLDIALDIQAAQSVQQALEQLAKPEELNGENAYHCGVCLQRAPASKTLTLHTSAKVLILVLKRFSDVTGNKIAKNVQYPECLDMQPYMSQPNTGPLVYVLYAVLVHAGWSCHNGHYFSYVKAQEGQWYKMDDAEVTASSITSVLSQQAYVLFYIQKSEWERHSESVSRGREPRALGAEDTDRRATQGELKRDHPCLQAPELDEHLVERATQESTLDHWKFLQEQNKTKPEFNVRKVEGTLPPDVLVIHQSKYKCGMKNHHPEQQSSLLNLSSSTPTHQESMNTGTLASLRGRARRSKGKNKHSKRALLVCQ
Turning to `CCOc1ccccc1-c1nc(-c2nnn(Cc3ccccc3)c2C)no1`, the IC50 (in general, the point on the concentration scale where inhibition reaches its midpoint) is > 50 µM (inactive). In the case of `Cc1ccccc1NC(=O)Cn1cc(-c2nc(C3CC3)no2)ccc1=O` it was > 50 µM (inactive); in that of `C/C=C\C1=CC(=O)[C@]23C[C@H]2[C@]2(C)CO[C@@]1(O)[C@@]3(O)O2`, > 50 µM (inactive); in that of `O=C1CC(O)C(C2=CC(=O)c3c(O)cccc3C2=O)O1` (stereo unspecified), 0.233 µM.

For `CCn1c(SCC(=O)c2c(N)n(CC(C)C)c(=O)n(C)c2=O)nnc1-c1ccccc1`, the 50% inhibitory concentration (IC50) is 16 µM. Turning to `Cc1ccc(C(=O)Nc2ccc3nccnc3c2)cc1`, the IC50 is > 50 µM (inactive). In the case of `COc1ccccc1CNC(=O)Nc1cccc2ccccc12`, the concentration for half-maximal inhibition (IC50) was 39.2 µM. Next, `O=C(CC1C(=O)Nc2nc(-c3ccccc3)nn21)Nc1cccc2ccccc12` (stereo unspecified): 12.2 µM; `O=C1CC(NS(=O)(=O)c2ccc3ccccc3c2)CN1c1cccc(F)c1` (stereo unspecified): 47.6 µM; `COc1ccc(Cl)cc1NC(=O)c1cc(-c2ccccn2)n[nH]1`: 0.202 µM. In the case of `Cc1ccc(Cn2nnc(C(=O)NCc3ccco3)c2-n2cccc2)cc1` it was 42.4 µM; in that of `COc1cc(Cl)ccc1C(=O)Nc1cccc(-n2cnnn2)c1C`, 4.48 µM; in that of `COc1ccc(C(=O)Nc2ccc(S(=O)(=O)N3CCCCC3)cc2)cc1`, > 50 µM (inactive). In the case of `Nc1nc(-c2ccc[nH]2)cs1` it was > 50 µM (inactive).

As for `CCOc1ccccc1C(=O)Oc1ccc2c(C)cc(=O)oc2c1`, the half-maximal inhibitory concentration (IC50) is 26.1 µM.

Turning to `Cc1ccc(CNC(=O)CCCn2c(=O)c3sccc3n(CC(=O)OCc3ccccc3)c2=O)cc1`, the IC50 was 2.5 µM.

Turning to `Cc1ccc(-n2c(=O)[nH]c3c(C(N)=O)nc(-c4cccnc4)nc32)cc1`, the IC50 is 4.36 µM. In the case of `COc1ccc(-c2nc(C)c(C(=O)NCc3ccc(S(N)(=O)=O)cc3)s2)cc1` it was > 50 µM (inactive); in that of `CN1c2ccccc2CN(CC(N)=O)CC1Cc1ccccc1` (stereo unspecified), > 50 µM (inactive); in that of `N#C/C(=C/c1sc(N2CCOCC2)nc1-c1ccccc1)c1ccccn1`, > 50 µM (inactive).

For the compound `CC(=O)c1cccc(NC(=O)c2ccc(-c3csc(C)n3)cc2)c1`, the IC50 is > 50 µM (inactive). In the case of `COc1ccc(C(=O)Nc2cc(F)c3nc(N4CCOCC4)ccc3c2)c(OC)c1` it was 33.9 µM; in that of `COc1ccc(NC(=O)c2[nH]nc3c2COc2ccccc2-3)c(OC)c1`, 5.5 µM.

`FC(F)(F)c1cccc(Nc2nnc(-c3cccnc3)s2)c1`: the concentration for half-maximal inhibition (IC50) is 5.64 µM. Take `Cc1ccc2c(c1)[C@]1(C(=O)N2)[C@@H]2C(=O)N(c3cccc(C(F)(F)F)c3)C(=O)[C@@H]2C2CCCN21` (stereo partly specified): the IC50 is > 50 µM (inactive). In the case of `O=C(NC1CC1)c1ccnn1-c1ccc2ccc(-c3ccncc3)cn12` it was > 50 µM (inactive). In the case of `CCCc1nc2sc3c(NCCN4CCOCC4)ncnc3c2c2c1CCC2` it was > 50 µM (inactive); in that of `O=C(/C=C/c1c(F)cccc1Cl)N1CCc2ccccc2C1`, 34.7 µM; in that of `Cc1cccc(NC(=O)Cn2c(-c3cnccn3)nc(C)c(C)c2=O)c1C`, > 50 µM (inactive). For the compound `O=C(NCc1nc(-c2ccc3c(c2)[nH]c(=O)n3C2CCCC2)no1)c1ccccc1`, the IC50 is > 5 µM (inactive).

As to `Fc1ccccc1Cc1nc(-c2ccc3nncn3c2)no1`, the IC50 was > 50 µM (inactive). Next, `COc1ccc(-n2nnc3c(SCC(=O)Nc4cc(C)on4)ncnc32)cc1`: > 50 µM (inactive); `Cc1cccc(N2C(=O)/C(=C\c3ccc4c(c3)OCCO4)c3ccccc3C2=O)c1`: 23.6 µM; `Cc1ccc(-n2nc(C(=O)Nc3ccc(C)cn3)c3ncn(C)c(=O)c32)cc1`: 2.65 µM.

Turning to `CC(C)(C)n1ncc2c(=O)n(Cc3cccc([N+](=O)[O-])c3)cnc21`, the IC50 was > 50 µM (inactive).

On to `COc1cc(OC)cc(-c2nc(-c3cn(-c4cccc(F)c4)nn3)no2)c1`, for which the 50% inhibitory concentration (IC50) was 0.13 µM.
